Data published in patent US9182350B2, “Naphthalene-based two-photon fluorescent probes, preparation method and use thereof” (DALIAN UNIVERSITY OF TECHNOLOGY, priority 2012, dated 2015).
Converted amounts (≈) assume the structure as drawn.

Key:
[1] = system: tumor tissue sections of mice' lungs; assay: Two-photon fluorescence labeling of tumor tissue sections; conditions: sections soaked in probe PBS solution (10 μM), 30 min
Protocol: (§1) FIG. 8 is the two-photon fluorescent imaging of fluorescent probe compound A4 for the tumor tissues and non-tumor tissues of mice' lungs in example 11. The sections of tumor tissues and non-tumor tissues of mice' lungs were incubated with 4 μL of A4 (10.0 μM). The representative areas were selected and imaged with oil-immersion objective lens (100×). The resulting images are representative of replicate experiments (n=3). FIG. 8 (a1) and (a2) are the confocal images of tumor tissue sections of mice' lungs after adding probe A4, FIG. 8 (b1) and (b2) are the confocal images of non-tumor tissue sections of mice' lungs after adding probe A4. The images of FIG. 8 (a1) and (b1) were recorded with the emission in the range of 500-550 nm. The images of FIG. 8 (a2) and (b2) were recorded with the emission in the range of 570-650 nm.
(§2) FIG. 11 is two-photon fluorescent imaging of fluorescent probe compound A5 for the tumor tissues and non-tumor tissues of mice' lungs in example 15. The sections of tumor tissues and non-tumor tissues of mice' lungs were incubated with 4 μL of […] (10.0 μM). The representative areas were selected and imaged with oil-immersion objective lens (100×). […] The images of FIG. 11 (a1) and (b1) were recorded with the emission in the range of 500-550 nm. The images of FIG. 11 (a2) and (b2) were recorded with the emission in the range of 570-650 nm.
(§3) Tumor tissue sections and non-tumor tissues sections of mice' lungs were soaked in the compound A2 PBS solution (10 μM), respectively. After 30 min, take out the section, mounting, safekeeping, the fluorescence images were obtained by two-photon spectral confocal multiphoton microscope. […] The images were recorded with the emission in the range of 500-550 nm.
as §3, with “A4” for “A2”, “nm. […]” for “nm.”

[2] = system: non-tumor tissue sections of mice' lungs; assay: Two-photon fluorescence labeling of non-tumor tissue sections; conditions: sections soaked in probe PBS solution (10 μM), 30 min
Protocol: as §1, §2, §3
as §3, with “A4” for “A2”, “nm. […]” for “nm.”

physchem = conditions: water
Description: (§8) The absorbance of different concentrations of compound A2 solution at maximum absorption wavelength was detected. The results are representative value from replicate experiments (n=3).
(§9) The absorbance of different concentrations of compound A4 solution at maximum absorption wavelength was detected. The results are representative value from replicate experiments (n=3).
(§10) The experiment instrument is Agilent 8453 U-V spectrophotometer.

HeLa cells = assay: Two-photon fluorescence labeling of cancer cells; format: cell-based; conditions: 4 μL probe-DMSO solution (4 μM), 60 min, 5% CO2, 37° C., PBS wash
Protocol: (§4) FIG. 2 is the two-photon fluorescent imaging of fluorescent probe compound A1 in the tumor cells and non-tumor cells in example 2. Hela cells and HEK293 cells were incubated with 4 μL of A1-DMSO (4.0 μM) for 60 min in 5% CO2 at 37° C. The representative areas were selected and imaged with oil-immersion objective lens (100×). The resulting images are representative of replicate experiments (n=3). The images were recorded with the emission in the range of 500-550 nm. FIG. 2 (a) is confocal image of Hela cell, FIG. 2 (b) is confocal image of HEK293 cell.
(§5) FIG. 10 is two-photon fluorescent imaging of fluorescent probe compound A2 in the tumor cells and non-tumor cells in example 14. […] The images of FIG. 10 (a1) and (b1) were recorded with the emission in the range of 500-550 nm. The images of FIG. 10 (a2) and (b2) were recorded with the emission in the range of 570-650 nm.
(§6) Compound A1 was used, which was synthesized in the example 1. […] The fluorescence imaging was obtained with a two-photon spectral confocal multiphoton microscope. […] The images were recorded with the emission in the range of 500-550 nm.
(§7) Compound A5 was used, which was synthesized in the example 13. […] The fluorescence imaging was obtained with a two-photon spectral confocal multiphoton microscope. […] The images of FIG. 10(a1) and FIG. 10(b1) were recorded with the emission in the range of 500-550 nm. […]

HEK 293 cells = assay: Two-photon fluorescence labeling of non-cancer cells; format: cell-based; conditions: 4 μL probe-DMSO solution (4 μM), 60 min, 5% CO2, 37° C., PBS wash
Protocol: as §4, §5, §6, §7

[3] = Water solubility experiment (absorbance vs concentration at maximum absorption wavelength)
Description: as §8, §9, §10

Structure (SMILES)	fluorescence signal in tumor tissue sections of mice' lungs (two-photon confocal imaging) [1]	fluorescence signal in non-tumor tissue sections of mice' lungs (two-photon confocal imaging) [2]	solubility (physchem) [µM]	fluorescence signal in HeLa cells (two-photon confocal imaging) (HeLa cells)	fluorescence signal in HEK 293 cells (two-photon confocal imaging) (HEK 293 cells)	solubility [3] [µM]
COc1ccc2c(c1)c(CC(=O)NCCCCCCNc1ccc3c4c(cccc14)-c1nc4ccccc4nc1-3)c(C)n2C(=O)c1ccc(Cl)cc1 [Compound A4]	strong fluorescence signals	no any fluorescence signals	24 (≈ 17 µg/mL)	–	–	–
COc1ccc2c(c1)c(CC(=O)NCCCCCCNc1ccc3c4c(cccc14)-c1nc4ccc([N+](=O)[O-])cc4nc1-3)c(C)n2C(=O)c1ccc(Cl)cc1 [Compound A5]	strong fluorescence signals	no any fluorescence signals	–	strong fluorescence signals	no any fluorescence signal	–
COc1ccc2c(c1)c(CC(=O)NCCCCCCNc1ccc3c4c1cccc4c(=O)n1c4ccccc4nc31)c(C)n2C(=O)c1ccc(Cl)cc1 [Compound A2]	strong fluorescence signals	no any fluorescence signals	–	–	–	5 (≈ 3.62 µg/mL)
COc1ccc2c(c1)c(CC(=O)NCCCCCCNc1ccc3c4c(cccc14)C(=O)N(C)C3=O)c(C)n2C(=O)c1ccc(Cl)cc1 [Compound A1]	–	–	–	strong fluorescence signals	no any fluorescence signal	–
